Laboratory results published in patent publication US11446304B2, “CDC-7-inhibitor compounds and use thereof for the treatment of neurological conditions” (CONSEJO SUPERIOR DE INVESTIGACIONES CIENTIFICAS (CSIC), priority 2017, dated 2022).

Experiments:
[1] = biological target: T1, human recombinant CDC7 (Homo sapiens, UniProt O00311); assay: CDC7 inhibition measurement (ADP-Glo technology); assay type: biochemical; details: ATP 10 μM, 60 min at room temperature; read-out: CDC7 ADP-Glo ™ CI50
T1 construct: purchased Promega V5089
Experimental: The method used is a non-radioactive enzyme inhibition assay using human recombinant CDC7. It is based on luminometric quantification of inhibition using the ADP-Glo™ Kinase Kit. In this test the luminescent signal correlates positively with the amount of adenosine diphosphate (ADP) and the activity of the kinase. […]
CDC7 enzyme inhibition studies were conducted using the promega kit: ADP-Glo™ Kinase Assay+CDC7/DBF4 Kinase Enzyme System (Catalogue No. V5089). ATP and other reagents were purchased in Sigma-Aldrich (St. Louis, Mo.). The trials were performed in a buffer solution using 96-well plates. The compound to be tested (5 μL, 40 μM dissolved in DMSO 4%) was added to each well followed by the enzyme (5 μL, 25 ng/well), ATP (5 μL, final concentration in well 10 μM) and PDKtidE (5 μL, 4 μg/well). It was then incubated for 60 minutes at room temperature and the reagent ADP-Glo™ (20 μL) was added and incubated again for 40 min at room temperature. After incubation, the kinase detection agent (40 μL) was added and incubated for 30 min at room temperature. Finally, the luminescence (integration time of 0.5-1 sec) was measured using a POLARstar Optima multimode reader polarimeter. Inhibition activities were calculated as a function of maximum activity, measured in the absence of inhibitor.

[2] = test system: TDP-43 phosphorylation (S409/410); assay: Effect on phosphorylation of TDP-43 (western blot); assay type: cell-based, human; details: SH-SY5Y cells, 24 h incubation with ethacrynic acid, FIG. 3
Experimental: FIG. 3. Sample of the effect of CDC7 inhibitors (compounds 1, 8, 9 and 13) on TDP-43 phosphorylation. Quantification and representation of phosphorylated TDP-43 levels by western blot.
To evaluate the levels of TDP-43 phosphorylated in the presence of CDC7 inhibitors (compounds 1 and 8), the cells after 24 h of incubation with ethacrylic acid were washed with PBS and then cold lysed with lysis buffer (50 mM Tris pH 7.4, 150 mM NaCl, 50 mM NaF, 1% Nonidet P-40 and Protease and phosphatase inhibitors (Roche)). The collected cell extracts were centrifuged for 10 minutes at 4,000 rpm. Protein quantification was performed with the Pierce BCA protein assay kit (Thermo Scientific). 10 μg of protein were loaded into the polyacrylamide gel with SDS and subsequently transferred to a polyvinylidene fluoride (PVDF) membrane (Millipore).

[3] = biological target: human recombinant CDC7/DBF4 (Homo sapiens, UniProt O00311); assay: CDC7 inhibition measurement (LanthaScreen Eu kinase binding, FRET); details: CDC7/DBF4 0.5 nM, 60 min at room temperature; read-out: CDC7 Lantha ™ CI50
Source text: The LanthaScreen Eu kinases inhibition assay uses an Alexa marker Fluor™ that binds to a kinase and is detected by the addition of an Eu-marked antibody. The binding of the marker and the antibody to the kinase results in a high degree of FRET, while the displacement of the marker by an inhibitor results in a loss of FRET. Unlike many other kinase activity tests, this is a simple mix and read test, with no developmental stages. This test method has been developed by Life Technologies and identifies competitive ATP kinase inhibitors, making them suitable for the detection of any compound that binds to the ATP site.
The compounds are evaluated at 1% DMSO (final) in the well. A mixture of human recombinant CDC7/DBF4 (0.5 nM), Eu-antiGST antibody (2 nM) and AlexaFluor marker (1 nM) has been used in a buffer of 50 mM HEPES pH 7.5, 0.01% BRIJ-35, 10 mM MgCl2, 1 mM EGTA in white plates of […], low volume, coded (Greiner cat. #784207), 160 nL (100×100% DMSO compound), 3.84 μL (buffer with CDC7/DBF4), 8.0 μL (antibody), 4.0 μL (marker) are added. Agitate 30 s and incubate at room temperature for 60 min. Then measure the fluorescence in the plate reader and analyze the data (Table 1).

[4] = test system: human SH-SY5Y neuroblastoma cells; assay: Neuroprotective effect against ethacrynic acid, cell viability by MTT; assay type: cell-based; details: ethacrynic acid 20 μM for 12 hours, inhibitors at 10 μM, FIG. 2
Experimental: FIG. 2. […] The data represent the mean of four different±SEM experiments (*p<0.05).
The human neuroblastoma cell line SH-SY5Y was cultured at 37° C. with 5% CO2 in DMEN medium (Dulbecco's Modified Eagle Medium) enriched with L-glutamine (2 mM), 1% non-essential amino acids, 1% Penicillin/Estreptomycin and 10% fetal bobin serum. In the semiconfluence state, the cells were treated with CDC7 inhibitors (compounds 1 and 8) at different concentrations for 1.30 hours post-addition of the causative agent of TPD-43 phosphorylation; ethacrynic acid ([…]) (Sigma). […] J Immunol Methods. 1987; 89:271-7) and levels of western blot phosphorylated TDP-43 (FIG. 2).

[5] = PAMPA blood-brain barrier permeation (porcine brain lipid); assay type: in vitro ADME; details: for Papp at 2.5 h: PAMPA-BHE, PBS pH 7.4/EtOH 70:30, 2 h 30 min at 25° C., mean ± SD, read-out: Pe; for PAMPA prediction of central nervous system (CNS) penetration: from Pe in PAMPA-BHE
Source text: An essential requirement for drugs for the treatment of neurodegenerative diseases is the ability to cross the blood-brain barrier (BBB), as otherwise they could not act on the target of interest. Therefore, for compounds that are not permeable or located in the area of uncertainty, it may be necessary to properly convey a pharmaceutical formulation through methods known to an expert in the field, such as encapsulation. This capability can be predicted in vitro using a method known by the acronym PAMPA (Parallel Artificial Membrane Permeability Assay) described by Di et al (Di, L.; Kerns, E. H.; Fan, K.; McConnell, O. J.; Carter, G. T. Eur. J. Med. Chem. 2003, 38 (3), 223-232) and which has subsequently been fine-tuned in our research group. This method allows predicting the effective permeability through artificial membranes by means of a passive diffusion process.
First of all, it is necessary to validate the method, for which 10 commercial compounds are used whose penetration capacity in the central nervous system (CNS) is known and which are to be specified below, obtaining in this case a good linear correlation between the experimental permeability values (Pe) and those described (FIG. 1). This correlation line obtained following the pattern described in the bibliography allows establishing the limits to predict whether or not a compound can cross the blood-brain barrier. Thus, a compound is considered BBB permeable (SNC+) if it has a permeability>4.48×10^−6 cm-s^−1.
For the procedure, between 3-5 mg of caffeine, desipramine, enoxacin, hydrocortisone, ofloxacin, piroxicam and testosterone, 12 mg of promazine and 25 mg of atenolol and verapamil were taken and dissolved in EtOH (1000 μL). 100 μL of these solutions were taken and EtOH (1400 μL) and phosphate buffer (PBS) pH=7.4 (3500 μL) were added in order to achieve a final EtOH concentration of 30% v/v in solution. Finally, the dissolutions were filtered.
On the other hand, a PBS/EtOH solution (70:30) was added to each well of the acceptance plate (180 μL). The donor plate was impregnated with a porcine brain lipid solution (4 μL) dissolved in dodecane (20 mg mL^−1). After 5 min, dissolution of each compound was added to this plate (180 μL).
Of the compounds 1 to 10 evaluated, 1-2 mg were taken and dissolved in EtOH (1500 μL) and phosphate buffer (PBS) pH=7.4 (3500 μL), filtered and added to the donor plate. With these solutions, the wavelengths at which the compounds absorb are determined and the initial absorbance levels at these wavelengths are measured using a UV absorbance reader. Each sample was analyzed from two to five wavelengths, in three wells and in two independent experiments.
The donor plate was then deposited on the acceptor forming a kind of “sandwich” and incubated for 2 hours and 30 minutes at 25° C. In this way, the compounds will pass from the donor plate to the acceptor plate through the porcine brain lipid by passive diffusion. After that time, the donor plate is carefully removed and the concentration and final absorbance of both commercial and synthesized compounds is determined. The results obtained are expressed as the mean of the measurements [standard deviation (SD)] of the different experiments carried out and are shown in table 2.

human recombinant CDC7/DBF4, sequence (O00311 whole entry): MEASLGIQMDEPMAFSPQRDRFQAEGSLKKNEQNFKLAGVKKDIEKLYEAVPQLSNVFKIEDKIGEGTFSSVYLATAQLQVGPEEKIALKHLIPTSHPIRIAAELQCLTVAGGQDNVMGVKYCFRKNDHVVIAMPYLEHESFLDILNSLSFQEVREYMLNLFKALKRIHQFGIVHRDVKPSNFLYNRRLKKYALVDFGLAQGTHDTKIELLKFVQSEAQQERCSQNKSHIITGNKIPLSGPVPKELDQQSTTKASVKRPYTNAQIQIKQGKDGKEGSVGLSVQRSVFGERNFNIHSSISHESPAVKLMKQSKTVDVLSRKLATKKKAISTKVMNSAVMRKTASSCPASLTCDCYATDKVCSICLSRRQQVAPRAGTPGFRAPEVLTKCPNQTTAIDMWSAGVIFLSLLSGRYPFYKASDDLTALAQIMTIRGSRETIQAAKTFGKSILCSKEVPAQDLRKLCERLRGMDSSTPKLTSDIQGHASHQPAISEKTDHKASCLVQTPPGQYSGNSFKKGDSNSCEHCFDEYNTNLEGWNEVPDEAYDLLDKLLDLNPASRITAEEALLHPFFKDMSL
human recombinant CDC7/DBF4, sequence (Q9UBU7 whole entry partner): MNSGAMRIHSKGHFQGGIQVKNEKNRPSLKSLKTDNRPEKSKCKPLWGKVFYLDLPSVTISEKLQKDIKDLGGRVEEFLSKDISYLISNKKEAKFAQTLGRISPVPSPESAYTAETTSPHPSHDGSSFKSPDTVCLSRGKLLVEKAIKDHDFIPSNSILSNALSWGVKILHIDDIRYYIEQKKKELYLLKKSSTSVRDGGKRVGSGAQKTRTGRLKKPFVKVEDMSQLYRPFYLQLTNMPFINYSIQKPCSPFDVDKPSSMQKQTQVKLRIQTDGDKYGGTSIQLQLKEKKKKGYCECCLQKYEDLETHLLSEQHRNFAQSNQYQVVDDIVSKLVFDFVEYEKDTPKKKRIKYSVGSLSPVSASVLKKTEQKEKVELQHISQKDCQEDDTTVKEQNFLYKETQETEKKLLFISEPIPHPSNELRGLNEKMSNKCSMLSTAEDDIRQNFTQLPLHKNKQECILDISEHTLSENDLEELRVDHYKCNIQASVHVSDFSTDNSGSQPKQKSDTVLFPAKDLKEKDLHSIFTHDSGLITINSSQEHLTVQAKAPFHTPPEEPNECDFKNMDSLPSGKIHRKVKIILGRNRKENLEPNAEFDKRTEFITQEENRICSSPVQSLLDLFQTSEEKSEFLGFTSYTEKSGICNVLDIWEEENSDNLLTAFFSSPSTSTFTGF
T1 sequence (O00311 whole entry): as the sequence (O00311 whole entry) above
T1 sequence (Q9UBU7 whole entry partner): as the sequence (Q9UBU7 whole entry partner) above

With `c1ccc(CSc2ncnc3[nH]cnc23)cc1` [Compound 1, 6-(benzylthio)-9H-purine] the IC50 [1] was 6740 ± 350 nM, the “phosphorylated TDP-43 levels” value [2] was “reduce phosphorylation of TDP-43” and the IC50 [3] was 125 nM. The “neuroprotective effect (cell viability)” value [4] was “neuroprotective effect”, the Papp at 2.5 h [5] was 6.2 ± 1.1 ×10⁻⁶ cm/s and the “PAMPA prediction of central nervous system (CNS) penetration” value (“PAMPA prediction” below) [5] was “SNC+ (a compound is considered BBB permeable (SNC+) if it has a permeability>4.48×10^−6 cm-s^−1)”.

`Ic1cccc(CSc2ncnc3[nH]cnc23)c1` [Compound 9, 6-((3-Iodobenzyl)thio)-9H-purine] gave an IC50 [1] of 3340 ± 270 nM, an IC50 [3] of 86 nM and a melting point of 185 to 187 °C. The “neuroprotective effect (cell viability)” value [4] was “neuroprotective effect”, the Papp at 2.5 h [5] was 13.8 ± 2.5 ×10⁻⁶ cm/s and the “PAMPA prediction” value [5] was “SNC+ (a compound is considered BBB permeable (SNC+) if it has a permeability>4.48×10^−6 cm-s^−1)”.

In the case of `Clc1cccc(CSc2ncnc3[nH]cnc23)c1` [Compound 8, 6-((3-Chlorobenzyl)thio)-9H-purine], the IC50 [1] is reported as 5210 ± 380 nM, the “phosphorylated TDP-43 levels” value [2] is reported as “reduce phosphorylation of TDP-43” and the IC50 [3] is reported as 172 nM. The melting point was 167 to 169 °C, the “neuroprotective effect (cell viability)” value [4] was “neuroprotective effect” and the Papp at 2.5 h [5] was 15.1 ± 0.6 ×10⁻⁶ cm/s. The “PAMPA prediction” value [5] was “SNC+ (a compound is considered BBB permeable (SNC+) if it has a permeability>4.48×10^−6 cm-s^−1)”.

Work on `Brc1ccccc1CSc1ncnc2[nH]cnc12` [Compound 13, 6-((2-bromobenzyl)thio)-9H-purine] yielded an IC50 [1] of 6240 ± 990 nM, an IC50 [3] of 275 nM and a melting point of 209 to 211 °C. The “neuroprotective effect (cell viability)” value [4] was “neuroprotective effect”, the Papp at 2.5 h [5] was 13.1 ± 0.1 ×10⁻⁶ cm/s and the “PAMPA prediction” value [5] was “SNC+ (a compound is considered BBB permeable (SNC+) if it has a permeability>4.48×10^−6 cm-s^−1)”.
